Patent publication US20150004134A1, “TREATMENT OF CANCER WITH HETEROCYCLIC INHIBITORS OF GLUTAMINASE” (Calithera Biosciences, Inc., priority 2012, published 2015)

Tests used:
[1] = tested on: HCT116 cells; test: Colon Carcinoma Xenograft Efficacy Study; type: in vivo, mice; conditions: intraperitoneal, twice daily, vs vehicle (FIG. 11)
Method: Female scid/bg mice, approximately 6 weeks of age, were implanted subcutaneously on the right flank with 5×10^6 HCT116 cells per mouse in a volume of 100 uL of sterile PBS. When tumors reached a volume of 50-100 mm^3, mice were randomized to groups of n=10 to receive either vehicle or test compound delivered twice daily by intraperitoneal injection. Tumors were measured three times per week using Vernier calipers and tumor volume calculated using the formula: Volume=(Length×Width^2/2), where length and width are the longest perpendicular sides of the tumor. Dosing continued twice daily until control tumors reached a size of 2000 mm^3 Statistical comparisons were made using a 2-way ANOVA with Bonferroni post-test.

[2] = tested on: P493-6 (myc "on") cells; test: Cell Proliferation Assay; type: cell-based; conditions: P493-6, 72 h, read-out: Cell prolif P493 72 h IC50, P493 cells, 72 h
Method in brief: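 Read-out: either Cell Titer Glo or Guava Viacount flow analysis after 72 h compound treatment of myc-on P493-6 cells (10,000/well, RPMI with 10% FBS) at 37 °C. DMSO held at 0.5% final.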

[3] = biological target: T1, recombinant form of glutaminase (GAC Delta N2) (Homo sapiens, UniProt O94925); test: Modified Recombinant Enzyme Assay - Time Dependence; type: biochemical; conditions: 60 min preincubation
T1 sequence (O94925 137-598 isoform O94925-3 limits assumed): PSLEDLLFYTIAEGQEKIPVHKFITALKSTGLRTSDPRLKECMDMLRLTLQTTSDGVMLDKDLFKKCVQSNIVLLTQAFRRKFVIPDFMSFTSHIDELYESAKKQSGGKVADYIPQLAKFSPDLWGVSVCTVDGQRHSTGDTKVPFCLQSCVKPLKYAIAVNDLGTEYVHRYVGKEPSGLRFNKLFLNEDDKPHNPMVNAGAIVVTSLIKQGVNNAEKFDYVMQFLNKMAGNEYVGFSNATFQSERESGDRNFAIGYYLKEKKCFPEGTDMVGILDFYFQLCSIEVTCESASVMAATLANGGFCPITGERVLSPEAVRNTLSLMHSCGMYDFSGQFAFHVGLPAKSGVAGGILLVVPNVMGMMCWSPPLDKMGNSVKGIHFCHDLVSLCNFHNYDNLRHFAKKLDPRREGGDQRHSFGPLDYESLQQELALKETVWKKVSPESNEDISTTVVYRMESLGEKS
Method: Compounds were assessed for their ability to inhibit the enzymatic activity of a recombinant form of glutaminase using a biochemical assay that couples the production of Glu (liberated by glutaminase) to GDH and measures the increase in fluorescence due to the reduction of NADP+ to NADPH.
3x-enzyme-containing solution was made by diluting recombinant glutaminase and GDH from Proteus species (Sigma Aldrich no. G4387) into glutaminase buffer to create a 6 nM glutaminase plus 18 units/mL GDH solution. […] When time-dependent effects of compound inhibition were tested, enzyme-containing solution was treated with inhibitor-containing solution for the indicated time prior to addition of substrate-containing solution.
IC50 Determination: The initial velocities of each progress curve were calculated using a straight line equation (Y=Yintercept+(slope)*X). Initial velocity values were plotted against compound concentration and fit to a four parameter dose response equation (% activity=Bottom+(Top−Bottom)/(1+10̂((LogIC50−X)*HillSlope))) to calculate an IC50 value.

IC50 [3] [nM] | SMILES | tumor size [1] | IC50 [2] [nM]
50 | Nc1cccc(CC(=O)Nc2nnc(CCCCc3ccc(NC(=O)Cc4cccc(OC(F)(F)F)c4)nn3)s2)n1 [Compound 725] | – | –
16 | O=C(Cc1ccc(Cl)c(OC(F)(F)F)c1)Nc1ccc(CCCCc2nnc(NC(=O)Cc3ccccn3)s2)nn1 [Compound 721] | – | –

More lines, now with the values behind:

SMILES | IC50 [3] [nM] | tumor size [1] | IC50 [2] [nM]
O=C(CCN1CCOCC1)OCC(C(=O)Nc1nnc(CCCCc2nnc(NC(=O)C(COC(=O)CCN3CCOCC3)c3ccccc3)s2)s1)c1ccccc1 (stereo not drawn) [Compound 188, {[5,5′-(butane-1,4-diyl)-bis(1,3,4-thiadiazole-5,2-diyl)]-bis(azanediyl)}-bis(3-oxo-2-phenylpropane-3,1-diyl)-bis(3-morpholinopropanoate)] | – | reduced tumor size | 460
O=C(Cc1cc(OC(F)(F)F)ccc1O)Nc1ccc(CCCCc2nnc(NC(=O)Cc3ccccn3)s2)nn1 [Compound 718] | 26 | – | –
O=C(Cc1ccc(F)c(OC(F)(F)F)c1)Nc1ccc(CCCCc2nnc(NC(=O)Cc3ccccn3)s2)nn1 [Compound 719] | 33 | – | –
